Data set [1] deals with Tfn-A594 uptake in U2OS cells. The experiment in a line: Automated quantitative CME assay: Tfn-A594 uptake. The following applies: for recovery of normal non-neuronal CME after wash out: 10 μM for 30 min; for fold less potent CME inhibition in presence of serum protein: 5 or 10% FBS or 1% BSA versus none; for IC50: Homo sapiens. The class given is cell-based. The method, then: To determine whether the Dyngo compounds are widespread cell‐permeable and endocytosis inhibitors, CME of fluorescent Tfn was compared in an automated quantitative endocytosis assay in U2OS cells. The assay consisted of over 1200 cells under serum‐free conditions; after preincubation with each analog for 30 min the uptake of fluorescent Tfn was measured. We refer to this endocytosis as non‐neuronal CME to distinguish it from CME of synaptic vesicles in presynaptic terminals of neurons, which is referred to as synaptic vesicle endocytosis (SVE). In these cells, Tfn uptake is presumed to be mediated by dynamin II, because this is the only isoform of dynamin that they express, as determined by western blot (Figure S6). […] There was no apparent correlation between in vitro and in‐cell activity, with potent dynamin‐active compounds like 1a and 14a having no effect on non‐neuronal CME (Table 1). This might be explained by low membrane permeability of these analogs, their cellular metabolism or rapid cellular efflux mechanisms.
Quantitative analysis of the inhibition of Alexa 594‐Tfn endocytosis in U2OS cells was performed on large numbers of serum‐starved cells as described 10. Synaptic vesicle recycling in cultured CGNs was monitored using FM1‐43 as described 57 (see Supporting Information). Dynamin‐independent endocytosis was measured using internalization of CT in NIH3T3 cells (using Tfn as a control) as described previously 58 with minor changes (see Supporting Information). The average number of cells for each data point was ˜1200. IC50 values were calculated using GraphPad Prism 5 and data were expressed as mean ± 95% confidence interval (CI) for three wells and ˜1200 cells.

The next data set concerns the target T1, human serum albumin (Homo sapiens, UniProt P02768).
T1 construct: purchased ChromTech Chiral‐HSA, 50 × 3.0 mm, 5 µm
Nature of the data set: Plasma protein binding on immobilized human serum albumin column. The class given is in vitro ADME. Particulars: immobilized HSA column. The text has this: Plasma protein binding was estimated using an immobilized human serum albumin column (ChromTech Chiral‐HSA, 50 × 3.0 mm, 5 µm) with gradient elution based on a previously published method 56.

Data set [2] has as its target T2, AP-2 alpha ear binding to amphiphysin 1 (Mus musculus, UniProt P17427).
T2 construct: GST-AP-2 α-appendage (amino acids 702–938); made in house; host or cells: bacteria
Nature of the data set: ELISA-based AP-2 binding assay. The method, then: The assay for the interaction of amphiphysin with either clathrin or AP2 was based on our previous report (11). Bacterially expressed recombinant purified His6-tagged amphiphysin 1 PRD+CLAP domains (amino acids 250-578) in screening buffer (20 mM HEPES, pH 7.4, 50 mM NaCl, 1 mM DTT, 1 mM PMSF) was added to a 384 well ELISA plate (high-binding PS Microplate, Greiner Bio-One) and bound to the plastic at room temperature for 1 hr. Non-specific binding was reduced by overnight incubation with 50 µL blocking buffer (20 mM HEPES, pH 7.4, 50 mM NaCl, 1 mM PMSF, 2 % BSA, 2.5 % skim milk) at 4 °C. Following extensive washes (with 20 mM HEPES, pH 7.4, 50 mM NaCl, 0.05 % Tween 20), chemical compounds diluted in DMSO (10 µL) were added and incubated together with bacterially expressed recombinant GST-tagged clathrin heavy chain TD (amino acids 1-364) or GST-AP-2 α-appendage (amino acids 702–938) for 1 hr at room temperature in screening buffer. This incubation was in the presence of test compounds diluted in 1% DMSO or 1% DMSO alone as a control. After 3 washes, horseradish peroxidase-coupled anti-GST antibodies were added in screening buffer and the plate incubated for 15 min at room temperature. Following additional washes, 50 µL TMB (3,3′,5,5′-tetramethylbenzidine) (Pierce Biotechnology) chromogenic substrate of horseradish peroxidase was added and the plate was incubated for 20 min before the reaction was terminated by adding 50 µL 1 N sulfuric acid to produce a yellow colour. The amount of bound protein was determined by spectrophotometric measurement in a plate reader in triplicates. Relative binding was calculated as a percentage of the DMSO control.
On the technique in general: ELISA stands for enzyme-linked immunosorbent assay.

The subject of data set [3] is HeLa cells. Nature of the data set: LDH toxicity assay. The class given is cell-based. Particulars: 8-h exposure, with or without serum. The method, then: Cytotoxicity was assayed by determination of lactate dehydrogenase (LDH) activity. HeLa cells were seeded in 96 well plates as described previously (11) Asynchronously growing cells were treated in the presence or absence of MiTMAB or the indicated Dyngo compound in the presence and absence of FCS at the indicated concentration for 8h. The supernatant (50 μL) was added to 100 μL of LDH assay reagent (Sigma- Aldrich) and the reaction was allowed to develop for 20 min. Absorbance was measured at 490 nm and 690 nm (plate background absorbance). Values were normalized to drug/media background value and toxicity was calculated as a % of a 100% lysed cell control.

Data set [4] relates to HeLa cells. The experiment in a line: Trypan blue exclusion cell viability and proliferation assay. The class given is cell-based. Particulars: 20 h exposure, with or without serum. The method, then:
Cell viability and membrane integrity was assessed by the Trypan Blue exclusion assay. Cells were seeded into 10 cm dish at a density of 1 × 10^5 cells per dish. […] This was carried out in the presence and absence of FBS.

A short description of data set [5]: MTT growth inhibition assay. It counts as cell-based. The following applies: human. The method, then: A 30 mM stock solution of each test compound was prepared in dimethylsulphoxide (DMSO) and stored at −20 °C. All cell lines were cultured at 37 °C, under 5% CO2 in air and were maintained in Dulbecco’s modified Eagle’s medium (Trace Biosciences, Australia) supplemented with 10% foetal bovine serum, 10 mM sodium bicarbonate penicillin (100 IU/mL), streptomycin (100 µg/mL), and glutamine (4 mM). Cells in logarithmic growth were transferred to 96-well plates. Cytotoxicity was determined by plating cells in duplicate in […] medium at a density of 2,500–4,000 cells/well. On day 0, (24 h after plating) when the cells were in logarithmic growth, 100 μL medium with or without the test agent was added to each well. After 72 h drug exposure, growth inhibitory effects were evaluated using the MTT (3-[4,5-dimethyltiazol-2-yl]-2,5-diphenyl-tetrazolium bromide) assay and absorbance read at 540 nm. A dose response curve was produced allowing for the calculation of a GI50 value. This value is the drug concentration at which cell growth is inhibited by 50% based on the difference between the optical density values on day 0 and those at the end of drug exposure.

Where [6] appears, read: then wash out up to 1 h / 60 min.
[7] abbreviates: Tfn-A594 uptake, U2OS, 30-min preincubation, serum-free, read-out: CME IC50.
The mark [8] stands for this setting: U2OS, 1 h incubation, 0.1% BSA, read-out: CME IC50, 0.1% BSA.
Setting [9] is: U2OS, 1 h incubation, 1% BSA, read-out: CME IC50, 1% BSA.
Where [10] appears, read: U2OS, 1 h incubation, 1% FBS, read-out: CME IC50, 1% FBS.
[11] abbreviates: U2OS, 1 h incubation, 5% FBS, read-out: CME IC50, 5% FBS.
[12] abbreviates: U2OS, 1 h incubation, 10% FBS, read-out: CME IC50, 10% FBS.
The mark [13] stands for this setting: U2OS, 1 h incubation, absence of FBS or BSA, read-out: CME IC50, 1 h.
Where [14] appears, read: MCF-7 breast cancer cells, MCF-7, MTT.

Structures are written as SMILES. Like-named read-outs stand apart in the source and are kept apart here.

The term IC50 denotes the concentration needed to halve the response being measured. Broadly, the GI50 is the concentration giving 50% growth inhibition. Read a high GI50 as less potent growth inhibition.

T1 sequence (P02768 25-609): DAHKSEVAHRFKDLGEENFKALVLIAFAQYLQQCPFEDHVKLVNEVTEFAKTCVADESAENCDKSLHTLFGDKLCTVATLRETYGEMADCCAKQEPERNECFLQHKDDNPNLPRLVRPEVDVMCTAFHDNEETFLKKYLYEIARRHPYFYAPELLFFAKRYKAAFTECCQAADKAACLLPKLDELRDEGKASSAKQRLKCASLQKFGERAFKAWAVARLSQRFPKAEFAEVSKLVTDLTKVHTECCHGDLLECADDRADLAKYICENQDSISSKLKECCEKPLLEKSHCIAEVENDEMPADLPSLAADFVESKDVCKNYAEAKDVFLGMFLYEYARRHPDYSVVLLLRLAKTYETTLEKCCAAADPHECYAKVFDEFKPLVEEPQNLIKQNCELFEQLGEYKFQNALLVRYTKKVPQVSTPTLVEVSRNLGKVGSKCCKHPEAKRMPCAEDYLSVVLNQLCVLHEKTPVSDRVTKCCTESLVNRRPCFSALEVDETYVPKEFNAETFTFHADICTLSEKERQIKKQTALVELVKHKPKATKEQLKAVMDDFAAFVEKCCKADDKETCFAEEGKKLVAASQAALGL
T2 sequence (P17427 702-938): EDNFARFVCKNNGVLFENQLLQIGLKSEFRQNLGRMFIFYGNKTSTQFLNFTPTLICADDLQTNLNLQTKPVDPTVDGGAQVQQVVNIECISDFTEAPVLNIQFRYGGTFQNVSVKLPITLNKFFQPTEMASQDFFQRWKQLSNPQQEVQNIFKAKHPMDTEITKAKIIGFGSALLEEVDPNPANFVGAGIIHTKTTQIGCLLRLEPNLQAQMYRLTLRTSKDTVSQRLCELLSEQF

In the case of `O=C(N/N=C/c1cccc(O)c1O)c1cc2ccccc2cc1O` [6a, (E)-N'-(2,3-Dihydroxybenzylidene)-3-hydroxy-2-naphthohydrazide], the “recovery of normal non-neuronal CME after wash out” value in data set [1] (setting [6]) worked out at 70%. Besides, the “fold less potent CME inhibition in presence of serum protein” value in data set [1] was “at least 20 fold”. For the same molecule, the half-inhibitory concentration (IC50) came to 5.8 ± 0.8 µM in data set [1] (setting [7]); 46 µM in data set [1] (setting [8]); 281 µM in data set [1] (setting [9]); 16.5 µM in data set [1] (setting [10]); 78 ± 7 µM in data set [1] (setting [11]); 108 ± 15 µM in data set [1] (setting [12]). For the same molecule, in data set [1] (setting [13]), the IC50 is 3.3 ± 0.6 µM. The “times more potent than dynasore in CME assay” value in data set [1] (same conditions, U2OS Tfn uptake) was “six times more potent”. Moreover, at human serum albumin, the “bound to human serum albumin” value was 99.7 % bound. Also, the “IC50 AP-2 alpha ear binding to amphiphysin 1” value in data set [2] (ELISA, n = 1 in triplicate) was “no effect”. The “generalized cytotoxicity by LDH activity” value in the data set with HeLa cells [3] was “did not exhibit generalized cytotoxicity”. The “cell membrane integrity / viability by trypan blue exclusion” value (“cell membrane integrity / viability” for short) in the data set on HeLa cells [4] is “do not affect cell viability”. In addition, the concentration for 50% growth inhibition (GI50) at 72 h in data set [5] (A431 skin cancer cells), in data set [5] (BE2-C neuroblastoma cells), in data set [5] (DU145 prostate cancer cells), in data set [5] (H460 lung cancer cells), in data set [5] (HT29 colon cancer cells) and in data set [5] (setting [14]) was more than 50 µM each time. The concentration for 50% growth inhibition (GI50) at 72 h in data set [5] (SJ-G2 glioblastoma cells), in data set [5] (SW480 colon cancer cells) and in data set [5] (ovarian cancer cells) was more than 50 µM each time.

For `O=C(N/N=C/c1ccc(O)c(O)c1)c1cc2ccccc2cc1O` [Dynasore, (E)-N'-(3,4-Dihydroxybenzylidene)-3-hydroxy-2-naphthohydrazide], the IC50 in data set [1] (setting [7]) was determined as 34.7 ± 5.1 µM; in data set [1] (setting [8]), 277 µM; in data set [1] (setting [9]), 235 µM; in data set [1] (setting [10]) it was 57.8 µM; in data set [1] (setting [11]) it was 650 µM; in data set [1] (setting [12]), 532 µM. The IC50 in data set [1] (setting [13]) came out at 22.2 ± 6 µM. Moreover, the “bound to human serum albumin” value at human serum albumin turned out to be 98.8 % bound. In addition, in data set [2] (ELISA, n = 1 in triplicate), the “IC50 AP-2 alpha ear binding to amphiphysin 1” value is listed as “no effect”. In the data set with HeLa cells [3], the “generalized cytotoxicity by LDH activity” value is listed as “did not exhibit generalized cytotoxicity”. Also, the “cell membrane integrity / viability” value in the data set on HeLa cells [4] is recorded as “do not affect cell viability”. For the same molecule, the GI50 at 72 h was determined as 14 ± 0.6 µM in data set [5] (A431 skin cancer cells); 8.6 ± 0.4 µM in data set [5] (BE2-C neuroblastoma cells); 23 ± 1.7 µM in data set [5] (DU145 prostate cancer cells); 21 ± 1.9 µM in data set [5] (H460 lung cancer cells); 12 ± 1.3 µM in data set [5] (HT29 colon cancer cells); 14 ± 0.3 µM in data set [5] (setting [14]). Moreover, the GI50 at 72 h in data set [5] (SJ-G2 glioblastoma cells) amounted to 12 ± 1.7 µM; in data set [5] (SW480 colon cancer cells), 3.6 ± 0.1 µM; in data set [5] (ovarian cancer cells), 6.7 ± 0.4 µM.

For `O=C(N/N=C/c1cc(O)c(O)cc1O)c1cc2ccccc2cc1O` [4a, (E)-3-Hydroxy-N'-(2,4,5-trihydroxybenzylidene) -2-naphthohydrazide], the results for the “recovery of normal non-neuronal CME after wash out” value in data set [1] (then 10 min after removal) and in data set [1] (setting [6]) were 70% and “over 80%”, respectively. The “fold less potent CME inhibition in presence of serum protein” value in data set [1] is “at least 20 fold”. Also, the IC50 in data set [1] (setting [7]) was determined as 5.7 ± 1 µM; in data set [1] (setting [8]), 44 µM; in data set [1] (setting [9]) it was 83 ± 12 µM; in data set [1] (setting [10]), 23.7 ± 3.2 µM; in data set [1] (setting [11]) it was 102 µM; in data set [1] (setting [12]), 115 ± 7.5 µM. In addition, the IC50 amounted to 6.3 ± 3.6 µM in data set [1] (setting [13]) and 362 µM in data set [2] (ELISA, n = 1 in triplicate). Further, the “preincubation time required for complete abolition of Tfn uptake” value in data set [1] (U2OS, 10 μM) came to 30 min. Besides, the “shortest preincubation at which inhibition of CME was observed” value in data set [1] (U2OS, 10 μM) was determined as 5 min. Besides, the “bound to human serum albumin” value on human serum albumin worked out at 99.4 % bound. In data set [2], the “times less potent on AP-2 binding than for dynamin I inhibition” value was approximately 1000 times. Besides, the “generalized cytotoxicity by LDH activity” value in the data set with HeLa cells [3] is listed as “did not exhibit generalized cytotoxicity”. In addition, in the data set on HeLa cells [4], the “cell membrane integrity / viability” value is reported as “do not affect cell viability”. The 50% growth inhibitory concentration (GI50) at 72 h in data set [5] (A431 skin cancer cells), in data set [5] (BE2-C neuroblastoma cells), in data set [5] (DU145 prostate cancer cells), in data set [5] (H460 lung cancer cells), in data set [5] (HT29 colon cancer cells) and in data set [5] (setting [14]) was more than 50 µM throughout. Besides, the GI50 at 72 h in data set [5] (SJ-G2 glioblastoma cells), in data set [5] (SW480 colon cancer cells) and in data set [5] (ovarian cancer cells) was more than 50 µM throughout.

The values above are taken from article PMC4138991, “Building a Better Dynasore: The Dyngo Compounds Potently Inhibit Dynamin and Endocytosis” (Traffic (Copenhagen, Denmark), 2013).
